{"source": "patent US8298582B2", "about": "“Polysaccharide-based impregnated solid material with improved stability, processes for the preparation thereof and impregnating solutions used” (Hydro-Quebec, priority 2006, dated 2012)", "key": {"[1]": {"assay": "Resistance to leaching, modified AWPA procedure E11-06 (5 faces protected)", "format": "physicochemical", "protocol": "This technique is based on AWPA protocol E11-06. The blocks are soaked in demineralized water at ambient temperature. Water samples are taken regularly and an analysis by ICP spectrometry is carried out (after dilution of the solution by a factor of 250) in order to evaluate the amount of boron present in the solution. The results are represented in FIGS. 5 and 5′."}, "Gleophyllum trabeum": {"tested_on": "Gleophyllum trabeum", "assay": "Soil-block culture test, AWPA protocol E10-06, on leached treated wood blocks", "format": "cell-based", "settings": "after 20 weeks of exposure, red pine sapwood blocks leached one week before the test", "protocol": "(§1) Tests for evaluating the degradation-resistance of the wood according to various treatments were carried out by following AWPA protocol E10-06. These tests were carried out using two brown rots: Postia placenta and Gleophyllum trabeum.\n(§2) These two preparations are used to treat blocks of 19 mm×19 mm×19 mm of red pine sapwood by means of a partial vacuum of −65 cmHg maintained for 30 minutes. This type of solution forms a gel in the cells of the wood after a period of one hour. In order to accelerate the crosslinking process and to allow drying, the blocks are heated overnight at 60° C.\n(§3) In order to validate the capacity of our treatment to retain the boron in the wood and to play its role of wood-preserving agent, the treated blocks were soaked for one week in demineralized water in order to extract all traces of non-chelated boric acid or DOT.\n(§4) After drying, the blocks were subjected to the laboratory “soil-block” culture test, strictly according to AWPA protocol E10-06."}, "Postia placenta": {"tested_on": "Postia placenta", "assay": "Soil-block culture test, AWPA protocol E10-06, on leached treated wood blocks", "format": "cell-based", "settings": "after 20 weeks of exposure, red pine sapwood blocks leached one week before the test", "protocol": "as §1, §2, §3, §4"}}}
{"smiles": "OB(O)O", "note": "[Boric acid, boric acid]", "values": [{"measurement": "loss of boron", "setting": "[1]; over a period of 8 days, red pine sapwood cubes", "result": 67, "unit": "%"}, {"measurement": "loss of boron", "setting": "[1]; over a period of 15 days", "result": 32, "unit": "%"}, {"measurement": "Weight loss (%) Gleophyllum trabeum", "setting": "Gleophyllum trabeum", "result": 67.5, "unit": "%"}, {"measurement": "Weight loss (%) Gleophyllum trabeum", "setting": "Gleophyllum trabeum; listed as boric acid", "result": "substantial loss"}, {"measurement": "Weight loss (%) Postia placenta", "setting": "Postia placenta", "result": 67.5, "unit": "%"}, {"measurement": "Weight loss (%) Postia placenta", "setting": "Postia placenta; listed as boric acid", "result": "substantial loss"}]}
